In patent publication US8927579B2, “Male contraceptive” (priority 2007, dated 2015):
Structures can show the parent of a compound that is named as a salt.

How the values were obtained:
[1] = test system: circular muscle of human vas deferens; assay: Contractile actions of L-type Ca2+ agonists, circular muscle; details: for contractions on second exposure to [K+]o, percentage of corresponding initial responses, circular muscle: [K+]o 30 mM & 120 mM in the continuous presence of agonist 1.0 μM; for response of circular muscle to higher concentration of L-type Ca2+ agonist: agonist 10 μM; for response of circular muscle to brief exposure to L-type Ca2+ agonist: agonist 0.1-3 μM
Source text: (§1) Human vas deferens specimens were obtained after elective vasectomies of healthy fertile men. College ethical approval and the consent of patients were obtained. The specimens were placed in ice-cold Krebs' medium, dissected-free of connective tissue/blood vessels and cut longitudinally into strips (longitudinal muscle preparations; 5-10 mm long & 1 mm wide) or transversely into rings (circular muscle preparations; 3 mm in length). The longitudinal and circular muscle preparations were then set up for tension recording (resting tension 5-7 mN) in a Perspex chamber superfused at 2 ml per min with Krebs' medium (36° C.) composed of (mM): NaCl, 118.8; NaHCO3, 25; KCl, 4.7; CaCl2.2H2O, 2.5; KH2PO4, 1.2; MgSO4.7H2O, 1.2; glucose, 11.1; ascorbic acid 0.1 and continuously gassed with 95% O2 and 5% CO2. Contractile responses were recorded via a Harvard-type force-displacement transducer. The analog signals were digitised using CIO-Das 16/Jr data acquisition software (Amplicon Liveline, Brighton, UK) and re-plotted on a microcomputer.
(§2) Tissues were equilibrated for 180 min in Krebs' medium containing inhibitors of extraneuronal and neuronal reuptake of noradrenaline, oestradiol (1 μM) and desipramine (0.1 μM) respectively, inhibitors of catechol-O-methyltransferase and monoamine oxidase, tropolone (10 μM) and iproniazid (10 μM) respectively and the β-adrenoceptor blocker, propranolol (1 μM). At the end of the equilibration period, the tissues were stimulated with noradrenaline (100 μM). […] After a contact time of 30-40 min in this medium, different experimental protocols (described below) were adopted in order to • (a) Elucidate the contractile actions of L-type Ca^2+ agonists such as FPL 64176 or Bay K 8644. In these experiments, tissues were exposed to FPL 64176 (0.1-10 μM added cumulatively) or in separate experiments Bay K 8644 (0.1-10 μM added cumulatively). • (b) Investigate the effects of various diphenylalkylamines and conventional L-type Ca^2+ antagonists (methoxyverapamil or nifedipine) on contractions evoked by high concentrations of extracellular potassium (high [K^+]o) in the presence of L-type Ca^2+ agonists, FPL 64176 (1 μM) or Bay K 8644 (1 μM). In this protocol, tissues were stimulated with high [K^+]O (10, 30 and 120 mM at 10-15 min intervals) in normal Krebs' medium, then exposed to L-type Ca^2+ agonists for 20-30 min and subsequently stimulated with high [K^+]O (10, 30 and 120 mM) in the presence of the drugs. These provided the initial responses. Following this and in the continuous presence of the L-type Ca^2+ agonists, the tissues were exposed additionally to L-type Ca^2+ antagonists (conventional or diphenylalkylamines) or drug-free vehicle medium. After contact times of 25-50 min the tissues were stimulated, first with high [K^+]O (either 30 mM or 120 mM) in order to take account of the well-documented use-dependent action of the diphenylalkylamine Ca^2+ antagonists. Following recovery from the test contraction and after a further 30-40 min, the tissues were then stimulated with high [K^+]o (10, 30 and 120 mM). This protocol is illustrated in FIGS. 3 and 4. The resulting contractions were measured (see below) and expressed as a percentage of corresponding initial responses to high [K^+]o evoked in the presence of L-type Ca^2+ agonists (i.e. before exposure to L-type Ca^2+ antagonists). […] Subsequent analysis (see below) was between contractions of drug-treated tissues and time-matched controls • (c) Determine the inhibitory potencies (IC50 values) of various diphenylalkylamines and phenothiazines and conventional L-type Ca^2+ antagonists (nifedipine and methoxyverapamil) against contractions evoked in longitudinal and circular muscle of human vas deferens by high [K^+]o (120 mM) in the presence of FPL 64176. In these experiments, tissues were stimulated with high [K^+]o (120 mM); sequentially in normal Krebs' medium and after 25-30 min exposure to the L-type Ca^2+ agonist, FPL 64176, (1 μM, Initial response). […]

[2] = test system: longitudinal muscle of human vas deferens; assay: Contractile actions of L-type Ca2+ agonists, longitudinal muscle; details: for contractions on second exposure to [K+]o, percentage of corresponding initial responses, longitudinal muscle: [K+]o 30 mM & 120 mM in the continuous presence of agonist 1.0 μM; for response of longitudinal muscle to higher concentration of L-type Ca2+ agonist: agonist 10 μM; for response of longitudinal muscle to brief exposure to L-type Ca2+ agonist: agonist 0.1-3 μM
Source text: as §1, §2

[3] = test system: circular muscle of human vas deferens; assay: IC50 against contractions evoked by high K+ (120 mM) in the presence of FPL 64176, circular muscle rings; details: Homo sapiens; contractions evoked by K+ (120 mM) in the presence of FPL 64176 (1 μM); means ± S.E.M.
Source text: as §1, §2

[4] = test system: longitudinal muscle of human vas deferens; assay: IC50 against contractions evoked by high K+ (120 mM) in the presence of FPL 64176, longitudinal muscle strips; details: Homo sapiens; contractions evoked by K+ (120 mM) in the presence of FPL 64176 (1 μM); means ± S.E.M.
Source text: as §1, §2

[5] = test system: longitudinal muscle of human vas deferens; assay: Inhibition at fixed concentration of contractions evoked by high K+ in the presence of FPL 64176, longitudinal muscle; details: drug 10 μM
Source text: as §1
Tissues were equilibrated for 180 min in Krebs' medium containing inhibitors of extraneuronal and neuronal reuptake of noradrenaline, oestradiol (1 μM) and desipramine (0.1 μM) respectively, inhibitors of catechol-O-methyltransferase and monoamine oxidase, tropolone (10 μM) and iproniazid (10 μM) respectively and the β-adrenoceptor blocker, propranolol (1 μM). At the end of the equilibration period, the tissues were stimulated with noradrenaline (100 μM). […] After a contact time of 30-40 min in this medium, different experimental protocols (described below) were adopted in order to • (a) Elucidate the contractile actions of L-type Ca^2+ agonists such as FPL 64176 or Bay K 8644. In these experiments, tissues were exposed to FPL 64176 (0.1-10 μM added cumulatively) or in separate experiments Bay K 8644 (0.1-10 μM added cumulatively). • (b) Investigate the effects of various diphenylalkylamines and conventional L-type Ca^2+ antagonists (methoxyverapamil or nifedipine) on contractions evoked by high concentrations of extracellular potassium (high [K^+]o) in the presence of L-type Ca^2+ agonists, FPL 64176 (1 μM) or Bay K 8644 (1 μM). In this protocol, tissues were stimulated with high [K^+]O (10, 30 and 120 mM at 10-15 min intervals) in normal Krebs' medium, then exposed to L-type Ca^2+ agonists for 20-30 min and subsequently stimulated with high [K^+]O (10, 30 and 120 mM) in the presence of the drugs. These provided the initial responses. […] The resulting contractions were measured (see below) and expressed as a percentage of corresponding initial responses to high [K^+]o evoked in the presence of L-type Ca^2+ agonists (i.e. before exposure to L-type Ca^2+ antagonists). […]

[6] = test system: circular muscle of human vas deferens; assay: Inhibition at fixed concentration of contractions evoked by high K+ in the presence of FPL 64176, circular muscle; details: drug 10 μM
Source text: as §1
Tissues were equilibrated for 180 min in Krebs' medium containing inhibitors of extraneuronal and neuronal reuptake of noradrenaline, oestradiol (1 μM) and desipramine (0.1 μM) respectively, inhibitors of catechol-O-methyltransferase and monoamine oxidase, tropolone (10 μM) and iproniazid (10 μM) respectively and the β-adrenoceptor blocker, propranolol (1 μM). At the end of the equilibration period, the tissues were stimulated with noradrenaline (100 μM). […] After a contact time of 30-40 min in this medium, different experimental protocols (described below) were adopted in order to • (a) Elucidate the contractile actions of L-type Ca^2+ agonists such as FPL 64176 or Bay K 8644. In these experiments, tissues were exposed to FPL 64176 (0.1-10 μM added cumulatively) or in separate experiments Bay K 8644 (0.1-10 μM added cumulatively). • (b) Investigate the effects of various diphenylalkylamines and conventional L-type Ca^2+ antagonists (methoxyverapamil or nifedipine) on contractions evoked by high concentrations of extracellular potassium (high [K^+]o) in the presence of L-type Ca^2+ agonists, FPL 64176 (1 μM) or Bay K 8644 (1 μM). In this protocol, tissues were stimulated with high [K^+]O (10, 30 and 120 mM at 10-15 min intervals) in normal Krebs' medium, then exposed to L-type Ca^2+ agonists for 20-30 min and subsequently stimulated with high [K^+]O (10, 30 and 120 mM) in the presence of the drugs. These provided the initial responses. Following this and in the continuous presence of the L-type Ca^2+ agonists, the tissues were exposed additionally to L-type Ca^2+ antagonists (conventional or diphenylalkylamines) or drug-free vehicle medium. After contact times of 25-50 min the tissues were stimulated, first with high [K^+]O (either 30 mM or 120 mM) in order to take account of the well-documented use-dependent action of the diphenylalkylamine Ca^2+ antagonists. Following recovery from the test contraction and after a further 30-40 min, the tissues were then stimulated with high [K^+]o (10, 30 and 120 mM). This protocol is illustrated in FIGS. 3 and 4. The resulting contractions were measured (see below) and expressed as a percentage of corresponding initial responses to high [K^+]o evoked in the presence of L-type Ca^2+ agonists (i.e. before exposure to L-type Ca^2+ antagonists). […]

[7] = test system: longitudinal muscle of human vas deferens; assay: New molecules against contractions to high K+ (120 mM), longitudinal muscle; details: for IC50: Homo sapiens, contractions evoked by K+ (120 mM), preliminary data, mean, n=2-3, read-out: Functional inhibitory potencies (IC50 values), Longitudinal muscle; for relative effectiveness against longitudinal and circular muscle contractions: contractions evoked by high [K+]o; for Selectivity [(C/L)-1]: longitudinal muscle selectivity from IC50 values in circular and longitudinal muscle, K+ (120 mM)
Source text: as §1, with “preparations; 5-8” for “preparations; 5-10”, “preparations; ˜3” for “preparations; 3”, “a Harvard type” for “a Harvard-type”
(§3) Tissues were equilibrated for 180 min in Krebs' medium containing inhibitors of extraneuronal and neuronal reuptake of noradrenaline, oestradiol (1 μM) and desipramine (0.1 μM) respectively, inhibitors of catechol-O-methyltransferase and monoamine oxidase, tropolone (10 μM) and iproniazid (10 μM) respectively and the β-adrenoceptor blocker, propranolol (1 μM). At the end of the equilibration period, the tissues were stimulated with noradrenaline (100 μM). […] After 40-45 min in this medium the tissues were stimulated with high [K^+]O (120 mM, Initial response). This was followed by exposure to cumulative concentrations of the new molecules {NIBA(1)XC1, NIBA(14)XN10, NIBA(6)XN3, NIBA(2)XC2, NIBA(53)XN16} or to Krebs' medium containing drug vehicles (time-matched controls). After contact times of 40-60 min at each drug concentration, the tissues were stimulated with high [K^+]o (120 mM). The resulting contractions were measured using computer software developed in-house to measure the total response (i.e. rhythmic activity plus tonic contraction). Contractions obtained in the presence of the new drug molecules were expressed as a percentage of the initial contraction evoked by high [K^+]o (120 mM) before exposure to the drugs.

[8] = test system: circular muscle of human vas deferens; assay: New molecules against contractions to high K+ (120 mM), circular muscle; details: contractions evoked by K+ (120 mM), preliminary data, mean, n=2-3, read-out: Functional inhibitory potencies (IC50 values), Circular muscle
Source text: as §1, with “preparations; 5-8” for “preparations; 5-10”, “preparations; ˜3” for “preparations; 3”, “a Harvard type” for “a Harvard-type”
as §3

[9] = Homo sapiens, [K+]o 120 mM in the presence of FPL 64176
[10] = [K+]o 30 mM in the presence of FPL 64176 (1.0 μM)

COC(=O)C1=C(C)NC(C)=C([N+](=O)[O-])[C@H]1c1ccccc1C(F)(F)F [Bay K 8644]
contractions on second exposure to [K+]o, percentage of corresponding initial responses, circular muscle [1]: 86-92%
response of circular muscle to higher concentration of L-type Ca2+ agonist [1]: rhythmic contractility
response of circular muscle to brief exposure to L-type Ca2+ agonist [1]: unresponsive
contractions on second exposure to [K+]o, percentage of corresponding initial responses, longitudinal muscle [2]: ~92%
response of longitudinal muscle to higher concentration of L-type Ca2+ agonist [2]: rhythmic contractility
response of longitudinal muscle to brief exposure to L-type Ca2+ agonist [2]: unresponsive

CN(C)CCCN1c2ccccc2Sc2ccc(Cl)cc21 [Chlorpromazine, chlorpromazine hydrochloride]
IC50 [3]: 18.3 ± 6 µM
IC50 [4]: 12.4 ± 2.9 µM

COC(=O)c1c(C)[nH]c(C)c1C(=O)c1ccccc1Cc1ccccc1 [FPL 64176, 2,5-dimethyl-4-[2-(phenylmethyl)benzoyl]-H-pyrrole-3-carboxylic acid methyl ester]
contractions on second exposure to [K+]o, percentage of corresponding initial responses, circular muscle [1]: 270-300%
response of circular muscle to higher concentration of L-type Ca2+ agonist [1]: rhythmic contractility
response of circular muscle to brief exposure to L-type Ca2+ agonist [1]: quiescent
contractions on second exposure to [K+]o, percentage of corresponding initial responses, longitudinal muscle [2]: 160-181%
response of longitudinal muscle to higher concentration of L-type Ca2+ agonist [2]: rhythmic contractility
response of longitudinal muscle to brief exposure to L-type Ca2+ agonist [2]: quiescent

Fc1ccc(C(c2ccc(F)cc2)N2CCN(C/C=C/c3ccccc3)CC2)cc1 [Flunarizine, flunarizine dihydrochloride]
inhibition at 10 µM [5, 9]: 40 to 44%
inhibition of longitudinal muscle contractions compared to time-matched controls [5, 10]: 20-30%
inhibition at 10 µM [6, 9]: 40 to 44%
inhibition of circular muscle contractions compared to time-matched controls [6, 10]: 20-30%

COCC(=O)O[C@]1(CCN(C)CCCc2nc3ccccc3[nH]2)CCc2cc(F)ccc2[C@@H]1C(C)C [Mibefradil]
IC50 [3]: 2.4 ± 0.9 µM
IC50 [4]: 1.1 ± 0.2 µM

CN1CCCCC1CNCCC(c1ccccc1)c1ccccc1 (centres unmarked) [NIBA(1)XC1]
IC50 [7]: 3.02 µM
relative effectiveness against longitudinal and circular muscle contractions [7]: more effective against longitudinal than circular muscle contractions
Selectivity [(C/L)-1] [7]: 7.01
IC50 [8]: 24.2 µM

CC1CCCCN1CCC(c1ccccc1)c1ccccc1 (centres unmarked) [NIBA(2)XC2]
IC50 [7]: 3 µM
relative effectiveness against longitudinal and circular muscle contractions [7]: more effective against longitudinal than circular muscle contractions
Selectivity [(C/L)-1] [7]: 2.69
IC50 [8]: 11.1 µM

CN1CCCCC1CCN(c1ccccc1)c1ccccc1 (centres unmarked) [NIBA(6)XN3]
IC50 [7]: 6.25 µM
relative effectiveness against longitudinal and circular muscle contractions [7]: more effective against longitudinal than circular muscle contractions
Selectivity [(C/L)-1] [7]: >3.8
IC50 [8]: > 30 µM
